Drawing on paper PMC7823583, “Discovery of Potent Dual EGFR/HER2 Inhibitors Based on Thiophene Scaffold Targeting H1299 Lung Cancer Cell Line” (Pharmaceuticals, 2020), this text covers IC50 for 12 molecules.

The target in one experiment is EGFR (Homo sapiens, UniProt P00533).
EGFR, sequence (P00533 25-1210): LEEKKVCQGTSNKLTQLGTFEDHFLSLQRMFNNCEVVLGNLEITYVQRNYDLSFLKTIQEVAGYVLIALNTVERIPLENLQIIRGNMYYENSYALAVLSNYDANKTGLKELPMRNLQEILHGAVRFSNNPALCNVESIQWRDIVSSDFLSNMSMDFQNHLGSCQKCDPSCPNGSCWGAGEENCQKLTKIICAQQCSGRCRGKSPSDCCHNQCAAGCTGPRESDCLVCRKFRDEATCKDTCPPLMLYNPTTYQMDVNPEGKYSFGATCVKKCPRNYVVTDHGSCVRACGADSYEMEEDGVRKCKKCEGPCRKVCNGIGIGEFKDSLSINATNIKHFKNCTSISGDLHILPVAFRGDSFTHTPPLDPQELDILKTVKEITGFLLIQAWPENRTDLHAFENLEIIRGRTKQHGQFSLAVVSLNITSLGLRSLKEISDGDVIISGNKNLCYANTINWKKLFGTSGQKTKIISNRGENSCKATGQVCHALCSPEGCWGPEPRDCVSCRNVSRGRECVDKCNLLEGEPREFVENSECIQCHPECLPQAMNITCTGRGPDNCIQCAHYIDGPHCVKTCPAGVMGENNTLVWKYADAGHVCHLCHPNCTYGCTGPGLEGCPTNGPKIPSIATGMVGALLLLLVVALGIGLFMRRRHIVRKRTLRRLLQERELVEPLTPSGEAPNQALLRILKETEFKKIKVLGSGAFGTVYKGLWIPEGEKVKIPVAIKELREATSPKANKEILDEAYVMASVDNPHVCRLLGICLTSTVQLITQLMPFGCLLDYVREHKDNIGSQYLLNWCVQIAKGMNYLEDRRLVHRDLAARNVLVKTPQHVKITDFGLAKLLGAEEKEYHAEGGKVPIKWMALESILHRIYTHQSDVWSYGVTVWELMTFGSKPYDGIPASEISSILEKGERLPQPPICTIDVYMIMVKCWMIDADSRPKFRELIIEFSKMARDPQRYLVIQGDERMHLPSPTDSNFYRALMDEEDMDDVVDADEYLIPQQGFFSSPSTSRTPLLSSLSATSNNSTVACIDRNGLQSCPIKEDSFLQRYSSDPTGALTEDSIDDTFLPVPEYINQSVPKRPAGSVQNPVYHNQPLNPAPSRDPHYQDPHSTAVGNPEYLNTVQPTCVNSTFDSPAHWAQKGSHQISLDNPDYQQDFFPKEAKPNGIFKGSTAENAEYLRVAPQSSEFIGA
Experiment: not given
The note with it: earlier study of the group; read-out: IC50 against EGFR; cited from earlier work.
As for `Oc1ccc(Nc2nnnc3sc4c(c23)CCC4)cc1` [Compound 8, reference compound], the IC50 was about 38 nM.
In the case of `Nc1cccc(Nc2nnnc3sc4c(c23)CCCC4)c1` [Compound 13b, 3-(5,6,7,8-Tetrahydro-7H-cyclohexa[4:5]thieno[2,3-d][1,2,3]triazin-4ylamino)benzene-1,3-diamine], the 50% inhibitory concentration (IC50) is about 0.33 nM.

The target in the next experiment is HER2 (Homo sapiens, UniProt P04626). Briefly: HER2 kinase inhibitory assay (Kinase-Glo Plus luminescence kinase assay). The note with it: read-out: IC50 against HER2. Type of experiment: biochemical. (In general: Kinase-Glo measures the ATP left after a reaction by luminescence.)
HER2, sequence (P04626 23-1255): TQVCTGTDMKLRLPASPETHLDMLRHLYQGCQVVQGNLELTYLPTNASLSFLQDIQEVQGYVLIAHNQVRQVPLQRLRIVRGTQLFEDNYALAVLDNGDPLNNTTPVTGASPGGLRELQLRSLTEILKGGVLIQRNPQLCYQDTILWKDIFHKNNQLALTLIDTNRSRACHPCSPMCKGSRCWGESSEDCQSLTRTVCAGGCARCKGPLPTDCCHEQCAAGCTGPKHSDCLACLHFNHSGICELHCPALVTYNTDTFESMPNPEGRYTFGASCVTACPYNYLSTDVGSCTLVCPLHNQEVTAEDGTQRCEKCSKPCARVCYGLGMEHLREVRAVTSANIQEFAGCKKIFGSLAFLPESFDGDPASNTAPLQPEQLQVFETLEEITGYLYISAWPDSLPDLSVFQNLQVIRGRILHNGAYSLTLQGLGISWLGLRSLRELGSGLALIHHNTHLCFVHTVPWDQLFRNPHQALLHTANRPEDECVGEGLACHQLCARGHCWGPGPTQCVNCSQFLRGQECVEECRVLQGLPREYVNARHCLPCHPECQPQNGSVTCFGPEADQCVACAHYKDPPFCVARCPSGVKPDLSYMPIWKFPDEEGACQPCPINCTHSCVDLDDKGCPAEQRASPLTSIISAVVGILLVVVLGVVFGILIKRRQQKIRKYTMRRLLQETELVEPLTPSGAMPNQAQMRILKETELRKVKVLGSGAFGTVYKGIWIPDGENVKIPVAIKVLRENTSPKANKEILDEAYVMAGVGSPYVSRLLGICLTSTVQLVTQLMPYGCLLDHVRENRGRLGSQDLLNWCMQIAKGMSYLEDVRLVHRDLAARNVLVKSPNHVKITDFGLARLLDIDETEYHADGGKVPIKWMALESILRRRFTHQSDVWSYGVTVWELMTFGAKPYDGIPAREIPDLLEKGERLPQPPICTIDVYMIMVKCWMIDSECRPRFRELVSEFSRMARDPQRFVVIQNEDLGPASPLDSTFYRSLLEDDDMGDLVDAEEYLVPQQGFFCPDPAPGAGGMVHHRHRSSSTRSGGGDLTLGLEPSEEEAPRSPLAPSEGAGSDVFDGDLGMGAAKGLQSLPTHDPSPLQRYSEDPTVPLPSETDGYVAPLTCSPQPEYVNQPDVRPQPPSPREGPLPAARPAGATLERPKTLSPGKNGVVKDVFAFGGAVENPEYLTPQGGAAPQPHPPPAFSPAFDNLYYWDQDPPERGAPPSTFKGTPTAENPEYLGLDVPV
In the case of `N#Cc1c(NC(=O)CNc2n[nH]c3ncccc23)sc2c1CCCC2` [Compound 21a, 2-(1H-Pyrazolo[3,4-b]pyridin-3-ylamino)-N-(3-cyano4,5,6,7-tetrahydrobenzo[b]thiophen-2-yl)acetamide], the IC50 stood at 0.14 nM.

In the next experiment the test system is NSCLC cell line H1299. Kind of experiment: In vitro cytotoxic activity against H1299, sulfo-rhodamine B (SRB) assay. The note with it: Homo sapiens, NCI-H1299, 48 h, read-out: IC50 against H1299.
Experimental: The potential cytotoxic activity of the target compounds on H1299 lung cancer cell line was tested using sulfo-rhodamine B (SRB) assay according to Skehan method [20]. Single cells were plated in 96-multiwell plates for 24 h before treatment with the compounds. A single concentration of the tested compounds was added to the cell monolayer. Monolayer cell was incubated with the compounds for 48 h at 37 °C and in atmosphere of 5% CO2. After 48 h, cell was fixed, washed and stained with Sulforhodamine-B stain. Acetic acid was then used to wash excess stain and attached stain was recovered with Tris ethylenediaminetetraacetic acid (EDTA) buffer. Color intensity was measured in an enzyme-linked immunosorbent assay (ELISA).
As for `Nc1cccc(Nc2nnnc3sc4c(c23)CCC4)c1` [Compound 13a, 3-(5,6-dihydro-7H-cyclopenta[4:5]thieno[2,3-d][1,2,3]triazin-4-ylamino)benzene-1,3-diamine], the IC50 turned out to be 28.8 nM.
With `Nc1cccc(Nc2nnnc3sc4c(c23)CCCC4)c1` [Compound 13b, 3-(5,6,7,8-Tetrahydro-7H-cyclohexa[4:5]thieno[2,3-d][1,2,3]triazin-4ylamino)benzene-1,3-diamine], the IC50 came out at 25 nM.
Same read-out and setting: the same measure for `C(=Nc1cccc(Nc2nnnc3sc4c(c23)CCC4)c1)c1ccccc1` [Compound 14a, 3-(5,6-Dihydro-7H-cyclopenta[4:5]thieno[2,3-d][1,2,3]triazin-4-ylamino)-N-benzylidenebenzene-1,3-diamine]: 25.7 nM; for `Oc1ccccc1C=Nc1cccc(Nc2nnnc3sc4c(c23)CCC4)c1` [Compound 15a, 3-(5,6-Dihydro-7H-cyclopenta[4:5]thieno[2,3-d][1,2,3]triazin-4-ylamino)-N-(2-hydroxybenzylidene)benzene-1,3-diamine]: 32.8 nM; for `Oc1ccccc1C=Nc1cccc(Nc2nnnc3sc4c(c23)CCCC4)c1` [Compound 15b, 3-(5,6,7,8-Tetrahydro-7H-cyclohexa[4:5]thieno[2,3-d][1,2,3]triazin-4-ylamino)-N-(2-hydroxybenzylidene)benzene-1,3-diamine]: 34 nM.
Take `O=[N+]([O-])c1cccc(C=Nc2cccc(Nc3nnnc4sc5c(c34)CCCC5)c2)c1` [Compound 17b, 3-(5,6,7,8-Tetrahydro-7H-cyclohexa[4:5]thieno[2,3-d][1,2,3]triazin-4-ylamino)-N-(3-nitrobenzylidene)benzene-1,3-diamine]: the IC50 amounted to 38.1 nM.
Still for that read-out and setting: under `N#Cc1c(NC(=O)CNc2n[nH]c3ncccc23)sc2c1CCCC2` [Compound 21a, 2-(1H-Pyrazolo[3,4-b]pyridin-3-ylamino)-N-(3-cyano4,5,6,7-tetrahydrobenzo[b]thiophen-2-yl)acetamide] stands 12.5 nM; under `Cc1cc(C)c2c(NCC(=O)Nc3sc4c(c3C#N)CCCC4)n[nH]c2n1` [Compound 21b, N-(3-Cyano-4,5,6,7-tetrahydrobenzo[b]thiophen-2-yl)-2-(4,6-dimethyl-1H-pyrazolo[3,4-b]pyridin-3-ylamino)acetamide], 13.7 nM; under `N#Cc1c(NC(=O)CNc2onc3ncccc23)sc2c1CCCC2` [Compound 23, N-(3-Cyano-4,5,6,7-tetrahydrobenzo[b]thiophen-2-yl)-2-(isoxazolo[3,4-b]pyridin-3-ylamino)acetamide], 18.4 nM.
In the case of `N#Cc1c(NC(=O)CNN=Cc2cccc([N+](=O)[O-])c2)sc2c1CCCC2` [Compound 25a, N-(3-Cyano-4,5,6,7-tetrahydrobenzo[b]thiophen-2-yl)-2-(2-(3-nitrobenzylidene)hydrazinyl)acetamide], the IC50 is 18.5 nM.
The same measure, in the same setting: under `COc1ccc(C=NNCC(=O)Nc2sc3c(c2C#N)CCCC3)cc1` [Compound 25b, N-(3-Cyano-4,5,6,7-tetrahydrobenzo[b]thiophen-2-yl)-2-(2-(4-methoxybenzylidene)hydrazinyl)acetamide] stands 18.5 nM.

A word on the IC50: it is the point on the concentration scale where inhibition reaches its midpoint.
